In patent US20010033888A1, “Crystalline trehalose dihydrate, its preparation and uses” (KABUSHIK KAISHA HAYASHIBARA SEIBUTS KAGAKU KENKYUJO, priority 1998, published 2001):
Values joined by “and” are separate entries in the source; they are usually repeats but may differ in a detail not shown here. Equal entries are not always repeated.

Key:
Format in all cases: physicochemical
[1] = Crystallinity by powdery X-ray diffraction analysis (Ruland method); details: pulverized specimen, three specimens each, c axis about 10 mm, tetradodecahedral crystal
Method: The crystallinity was determined by pulverizing a specimen and applying the Ruland method in Acta Crystallographica, Vol. 14, p. […] As a control, commercially available crystal sugar with a size equivalent to those of the specimens was examined similarly as above.

[2] = Intrusion disruptive strength by rheometer (needle about 3 mm in diameter); details: stage elevated at 6 cm/min, three specimens each, strength when needle ruptures the crystal
Method: As a representative polyhedral crystalline trehalose dihydrate having the c axis of about 10 mm, obtained by the methods in the later described Examples A-1 and A-2, three specimens with a tetradodecahedral crystalline structure were used and examined for the crystallinity by powdery X-ray diffraction analysis and the intrusion disruptive strength by rheometer. The crystallinity was determined by pulverizing a specimen and applying the Ruland method in Acta Crystallographica, Vol. 14, p. 1,180 (1961) using “GEIGERFLEX RAD-IIB”, an X-ray diffraction analyzer using Cuka ray commercialized by Rigaku Corporation, Tokyo, Japan, based on the powdery X-ray diffraction intensity. Using “FUDOH RHEO METER NRM-2010J-CW”, a rheometer commercialized by Rheotech Co., Ltd., Tokyo, Japan; and a needle, about 3 mm in diameter, as an adaptor, the intrusion disruptive strength was determined by placing a polyhedral crystal on a specimen stage, elevating the stage to the direction of the needle at a rate of 6 cm/min, and measuring the strength (kg) when the needle intrudes into and ruptures the polyhedral crystal. As a control, commercially available crystal sugar with a size equivalent to those of the specimens was examined similarly as above.

[3] = Hygroscopicity / solidification of the crystal products; details: dried crystal product; dihydrate

Crystallinity ([1]; dihydrate)	Intrusion disruptive strength ([2]; dihydrate)	SMILES	Hygroscopicity and solidification [3]	Crystallinity [1]	Intrusion disruptive strength [2]
84% and 83%	3.8 kg and 3.5 kg	O.O.OC[C@H]1O[C@H](O[C@H]2O[C@H](CO)[C@@H](O)[C@H](O)[C@H]2O)[C@H](O)[C@@H](O)[C@@H]1O [Example A-2, crystalline trehalose dihydrate]	insubstantial hygroscopicity and solidification	–	–
–	–	OC[C@H]1O[C@@](CO)(O[C@H]2O[C@H](CO)[C@@H](O)[C@H](O)[C@H]2O)[C@@H](O)[C@@H]1O [Sugar crystal, reference compound]	–	84% and 85%	9.9 kg and 10.0 kg
84% and 83%	4.3 kg and 4.1 kg and 4.0 kg	O.O.OC[C@H]1O[C@H](O[C@H]2O[C@H](CO)[C@@H](O)[C@H](O)[C@H]2O)[C@H](O)[C@@H](O)[C@@H]1O [Example A-1, crystalline trehalose dihydrate]	do not substantially absorb moisture to be solidified	–	–
